Measured values as given in patent US9346761B2, “Arginine methyltransferase inhibitors and uses thereof” (Epizyme, Inc., priority 2013, dated 2016).

Columns and labels:
[1] = molecular target: T1, Full-length human PRMT1 isoform 1 (Homo sapiens, UniProt Q99873); experiment: PRMT1 biochemical assay (3H-SAM Flashplate, peptide substrate)
T1 construct: GST-tagged PRMT1; made in house; host or cells: High Five insect cells (baculovirus, pFastBacI)
How it was run: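 GST-tagged full-length PRMT1 from baculovirus-infected cells, preincubated 30 min at room temperature with compound in 20 mM Bicine pH 7.6, TCEP, BSG, Tween 20. Reaction started with 3H-SAM plus biotinylated peptide, stopped with 300 uM unlabelled SAM. Streptavidin Flashplate capture and scintillation counting; % inhibition curve-fitted for IC50.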

Human CARM1 (PRMT4) = molecular target: T2, Human CARM1 (PRMT4) (Homo sapiens, UniProt Q86X55); experiment: CARM1 biochemical assay (3H-SAM Flashplate, peptide substrate)
T2 construct: Flag-CARM1-His was eluted with 200 ug/ml FLAG peptide in buffer A; made in house; host or cells: HEK 293F cells (BacMam virus, pFastBacMam)
T2 sequence (Q86X55 with tags, fused parts or gaps isoform Q86X55-1): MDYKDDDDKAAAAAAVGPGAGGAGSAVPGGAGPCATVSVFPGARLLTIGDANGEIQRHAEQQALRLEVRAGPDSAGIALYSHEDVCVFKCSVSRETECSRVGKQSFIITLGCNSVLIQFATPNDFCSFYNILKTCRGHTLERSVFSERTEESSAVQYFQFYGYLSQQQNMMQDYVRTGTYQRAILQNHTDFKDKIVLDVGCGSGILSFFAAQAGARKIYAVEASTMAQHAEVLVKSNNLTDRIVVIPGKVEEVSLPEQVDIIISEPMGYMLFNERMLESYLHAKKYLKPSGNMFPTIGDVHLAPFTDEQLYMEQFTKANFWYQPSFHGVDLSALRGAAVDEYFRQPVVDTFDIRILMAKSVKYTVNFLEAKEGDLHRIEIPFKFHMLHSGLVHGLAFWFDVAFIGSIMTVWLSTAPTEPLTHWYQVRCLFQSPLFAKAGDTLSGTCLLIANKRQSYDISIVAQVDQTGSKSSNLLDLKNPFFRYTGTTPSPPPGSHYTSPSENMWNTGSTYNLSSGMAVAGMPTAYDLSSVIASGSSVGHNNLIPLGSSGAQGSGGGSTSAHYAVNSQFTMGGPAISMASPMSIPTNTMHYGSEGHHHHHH
Text: General Materials. S-adenosylmethionine (SAM), S-adenosylhomocysteine (SAH), bicine, Tween20, dimethylsulfoxide (DMSO), bovine skin gelatin (BSG), sodium butyrate and Tris(2-carboxyethyl)phosphine hydrochloride solution (TCEP) were purchased from Sigma-Aldrich at the highest level of purity possible. ^3H-SAM was purchase from American Radiolabeled Chemicals with a specific activity of 80 Ci/mmol. 384-well streptavidin Flashplates were purchased from PerkinElmer.
Substrates. Peptide representative of human histone H3 residues 16-30 was synthesized with an N-terminal linker-affinity tag motif and a C-terminal amide cap by 21st Century Biochemicals.
Protein Expression. Recombinant baculovirus were generated according to Bac-to-Bac kit instructions (Life Technologies). […] Infections were carried out at 37° C. for 48 hours, harvested by centrifugation, and stored at −80° C. for purification.
Protein Purification. […] Column was washed with 500 mM NaCl in buffer A and Flag-CARM1-His was eluted with 200 ug/ml FLAG peptide in buffer A. Pooled fractions were dialyzed in 20 mM Tris, 150 mM NaCl, 5% glycerol and 1 mM DTT, pH 7.8.
General Procedure for CARM1 Enzyme Assays on Peptide Substrates. The assays were all performed in a buffer consisting of 20 mM Bicine (pH=7.6), 1 mM TCEP, 0.005% BSG, and 0.002% Tween 20, prepared on the day of use. […] DMSO (1 ul) was added to Columns 11, 12, 23, 24, rows A-H for the maximum signal control and 1 ul of SAH, a known product and inhibitor of CARM1, was added to columns 11, 12, 23, 24, rows I-P for the minimum signal control. A cocktail (40 ul) containing the CARM1 enzyme was added by Multidrop Combi (Thermo-Fisher). The compounds were allowed to incubate with CARM1 for 30 min at room temperature, then a cocktail (10 ul) containing ^3H-SAM and peptide was added to initiate the reaction (final volume=51 ul). […] The assays were stopped by the addition of non-radiolabeled SAM (10 ul) to a final concentration of 300 uM, which dilutes the ^3H-SAM to a level where its incorporation into the peptide substrate is no longer detectable. 50 ul of the reaction in the 384-well polypropylene plate was then transferred to a 384-well Flashplate and the biotinylated peptides were allowed to bind to the streptavidin surface for at least 1 hour before being washed once with 0.1% Tween20 in a Biotek ELx405 plate washer. The plates were then read in a PerkinElmer TopCount plate reader to measure the quantity of ^3H-labeled peptide bound to the Flashplate surface, measured as disintegrations per minute (dpm) or alternatively, referred to as counts per minute (cpm).
Where dpm=disintegrations per minute, cmpd=signal in assay well, and min and max are the respective minimum and maximum signal controls.
Where top and bottom are the normally allowed to float, but may be fixed at 100 or 0 respectively in a 3-parameter fit. The Hill Coefficient normally allowed to float but may also be fixed at 1 in a 3-parameter fit. Y is the % inhibition and X is the compound concentration.

T1 sequence (Q99873 with tags, fused parts or gaps): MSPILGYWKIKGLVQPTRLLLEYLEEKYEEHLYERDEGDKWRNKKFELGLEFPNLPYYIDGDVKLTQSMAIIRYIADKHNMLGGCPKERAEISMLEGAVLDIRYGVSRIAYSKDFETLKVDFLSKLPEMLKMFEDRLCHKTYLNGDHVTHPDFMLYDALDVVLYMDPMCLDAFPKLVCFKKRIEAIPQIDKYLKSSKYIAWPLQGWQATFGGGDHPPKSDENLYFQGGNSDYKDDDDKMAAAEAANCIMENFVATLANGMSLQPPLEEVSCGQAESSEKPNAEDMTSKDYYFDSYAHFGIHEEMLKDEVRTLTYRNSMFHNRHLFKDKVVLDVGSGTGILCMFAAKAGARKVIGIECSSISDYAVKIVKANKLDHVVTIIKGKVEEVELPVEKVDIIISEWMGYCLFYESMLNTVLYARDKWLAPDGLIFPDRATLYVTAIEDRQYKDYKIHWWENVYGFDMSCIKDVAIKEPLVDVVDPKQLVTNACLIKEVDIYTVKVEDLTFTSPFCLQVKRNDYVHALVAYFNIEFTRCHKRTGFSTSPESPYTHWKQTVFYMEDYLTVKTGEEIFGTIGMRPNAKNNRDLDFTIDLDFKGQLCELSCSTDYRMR

| SMILES | IC50 [1] [µM] | IC50 (Human CARM1 (PRMT4)) [µM] |
| --- | --- | --- |
| COc1ccc(Cl)cc1-c1n[nH]cc1CN(C)CCN [Compound 157] | 1.01 to 3 | > 10 |
| Cc1cccc(-c2n[nH]cc2CN(C)CCN)c1 [Compound 131] | < 0.1 | 1.01 to 3 |
| CN(CCN)Cc1c[nH]nc1-c1cc(F)cc(F)c1 [Compound 111] | < 0.1 | 0.101 to 1 |
| CCNC(=O)c1ccc(-c2n[nH]cc2CN(C)CCN)cc1 [Compound 136] | < 0.1 | 1.01 to 3 |
| Cc1ccc(F)cc1-c1n[nH]cc1CN(C)CCN [Compound 159] | < 0.1 | > 10 |
| COc1ccc(-c2n[nH]cc2CN(C)CCN)cc1 [Compound 153] | < 0.1 | 1.01 to 3 |
| COCCOc1ccc(-c2n[nH]cc2CN(C)CCN)cc1 [Compound 167] | < 0.1 |  |
| CN(CCN)Cc1c[nH]nc1-c1ccc(C(F)(F)F)c(Cl)c1 [Compound 117] | < 0.1 | 0.101 to 1 |
| Cc1cc(Cl)ccc1-c1n[nH]cc1CN(C)CCN [Compound 133] | < 0.1 | 3.01 to 10 |
| CN(CCN)Cc1c[nH]nc1-c1cc(Cl)ccc1F [Compound 156] | 0.101 to 1 | 3.01 to 10 |
| CC(=O)c1cccc(-c2n[nH]cc2CN(C)CCN)c1 [Compound 112] | < 0.1 | 1.01 to 3 |
| COc1cc(Cl)cc(-c2n[nH]cc2CN(C)CCN)c1 [Compound 127] | < 0.1 | 1.01 to 3 |
| CN(CCN)Cc1c[nH]nc1-c1ccc(C(F)(F)F)cc1F [Compound 148] | 0.101 to 1 | > 10 |
| COc1ccc(F)cc1-c1n[nH]cc1CN(C)CCN [Compound 160] | 0.101 to 1 | > 10 |
| Cc1cc(C#N)ccc1-c1n[nH]cc1CN(C)CCN [Compound 110] | < 0.1 | 3.01 to 10 |
| CCn1ncc(CN(C)CCNC)c1-c1ccc(F)cc1 [Compound 7] | 0.101 to 1 | 1.01 to 3 |
| COCCn1cc(CN(C)CCN)c(-c2ccc(F)cc2)n1 [Compound 5] | 1.01 to 3 | > 10 |
| CN(CCN)Cc1c[nH]nc1-c1ccc(C2CCOCC2)cc1 [Compound 98] | < 0.1 | 0.101 to 1 |
| COc1ccc(-c2n[nH]cc2CN(C)CCN)cc1F [Compound 134] | < 0.1 | 1.01 to 3 |

| SMILES | IC50 [1] [µM] | IC50 (Human CARM1 (PRMT4)) [µM] |
| --- | --- | --- |
| CN(CCN)Cc1c[nH]nc1-c1cccc(Cl)c1F [Compound 123] | < 0.1 | 1.01 to 3 |
| CN(CCN)Cc1c[nH]nc1-c1cc(C#N)ccc1Cl [Compound 147] | 1.01 to 3 | > 10 |
| Cc1[nH]nc(-c2ccc(F)cc2)c1CN(C)CCN [Compound 169] | 0.101 to 1 |  |
| CC(C)Oc1ccc(-c2c[nH]nc2CN(C)CCN)cc1F [Compound 144] | < 0.1 | 3.01 to 10 |
| CC(C)c1ccc(-c2c[nH]nc2CN(C)CCN)cc1 [Compound 101] | < 0.1 | 3.01 to 10 |
| CN(CCN)Cc1c[nH]nc1-c1ccc(C2CC2)cc1 [Compound 116] | < 0.1 | 1.01 to 3 |
| CN(CCN)Cc1c[nH]nc1-c1cc(F)ccc1Cl [Compound 106] | 0.101 to 1 | > 10 |
| CCN(CC)C(=O)c1ccc(-c2n[nH]cc2CN(C)CCN)cc1 [Compound 143] | 0.101 to 1 | 3.01 to 10 |
| CN(CCN)Cc1c[nH]nc1-c1ccc(OCCN2CCOCC2)cc1 [Compound 172] | 0.101 to 1 |  |
| Cc1ccc(-c2n[nH]cc2CN(C)CCN)cc1Cl [Compound 126] | < 0.1 | 0.101 to 1 |
| CN(CCN)Cc1c[nH]nc1-c1cccc(N(C)C)c1 [Compound 149] | < 0.1 | 1.01 to 3 |
| CN(CCN)Cc1c[nH]nc1-c1ccccc1C#N [Compound 140] | 0.101 to 1 | > 10 |
| CC(O)c1ccc(-c2n[nH]cc2CN(C)CCN)cc1 (stereo not drawn) [Compound 115] | < 0.1 | 3.01 to 10 |
| CN(CCN)Cc1c[nH]nc1-c1ccc(C(F)(F)F)cc1Cl [Compound 135] | < 0.1 | > 10 |
| CN(CCN)Cc1c[nH]nc1-c1ccc(OC2CC2)cc1 [Compound 114] | < 0.1 | 0.101 to 1 |
| Cc1ccc(-c2n[nH]cc2CN(C)CCN)cc1 [Compound 162] | < 0.1 | 0.101 to 1 |
| COCCn1ncc(CN(C)CCN)c1-c1ccc(F)cc1 [Compound 6] | 3.01 to 10 | > 10 |
| CCOC(=O)c1cccc(-c2n[nH]cc2CN(C)CCN)c1 [Compound 150] | < 0.1 | 1.01 to 3 |
| CN(CCN)Cc1n[nH]cc1-c1ccc(Cl)cc1 [Compound 102] | < 0.1 | 1.01 to 3 |

| SMILES | IC50 [1] [µM] | IC50 (Human CARM1 (PRMT4)) [µM] |
| --- | --- | --- |
| COc1ccc(-c2n[nH]cc2CN(C)CCN)cc1Cl [Compound 125] | < 0.1 | 1.01 to 3 |
| Cc1c(F)cccc1-c1n[nH]cc1CN(C)CCN [Compound 129] | 0.101 to 1 | 1.01 to 3 |
| CN(CCN)Cc1n[nH]cc1-c1ccc(OC2CC2)cc1 [Compound 119] | < 0.1 | 0.101 to 1 |
| COc1cccc(-c2n[nH]cc2CN(C)CCN)c1 [Compound 130] | 0.101 to 1 | 1.01 to 3 |
| CN(CCN)Cc1n[nH]cc1-c1ccc(C2CC2)cc1 [Compound 104] | < 0.1 | 1.01 to 3 |
| CN(CCN)Cc1n[nH]cc1-c1ccc(OC(F)F)cc1 [Compound 138] | < 0.1 | 1.01 to 3 |
| COc1ccc(-c2n[nH]cc2CN(C)CCN)c(F)c1 [Compound 107] | < 0.1 | 1.01 to 3 |
| CN(CCN)Cc1c[nH]nc1-c1ccc(Cl)cc1 [Compound 95] | < 0.1 | 0.101 to 1 |
| Cc1ccc(C#N)cc1-c1n[nH]cc1CN(C)CCN [Compound 158] | 1.01 to 3 | > 10 |
| CCOc1ccc(-c2n[nH]cc2CN(C)CCN)cc1 [Compound 166] | < 0.1 |  |
| Cc1cc(F)ccc1-c1n[nH]cc1CN(C)CCN [Compound 152] | < 0.1 | 3.01 to 10 |
| COc1cc(-c2n[nH]cc2CN(C)CCN)ccc1F [Compound 142] | < 0.1 | 1.01 to 3 |
| CN(CCN)Cc1c[nH]nc1-c1ccc(C(F)(F)F)c(F)c1 [Compound 141] | < 0.1 | 1.01 to 3 |
| CN(CCN)Cc1n[nH]cc1-c1ccc(C(F)(F)F)cc1 [Compound 103] | < 0.1 | 1.01 to 3 |
| NCCN(CCO)Cc1c[nH]nc1-c1ccc(F)cc1 [Compound 171] | 0.101 to 1 |  |
| CN(CCN)Cc1c[nH]nc1-c1ccc2c(c1)NC(=O)CO2 [Compound 173] | 0.101 to 1 |  |
| CCN(C)C(=O)c1ccc(-c2n[nH]cc2CN(C)CCN)cc1 [Compound 163] | 0.101 to 1 |  |
| CC(C)CN(C)C(=O)c1ccc(-c2n[nH]cc2CN(C)CCN)cc1 [Compound 164] | 0.101 to 1 |  |
| CC(C)Cc1ccc(-c2c[nH]nc2CN(C)CCN)cc1 [Compound 170] | < 0.1 |  |
